Ki data for seven compounds are collected here from ChEMBL document CHEMBL1121950, “Species- or isozyme-specific enzyme inhibitors. 9. Selective effects in inhibitions of rat pyruvate kinase isozymes by adenosine 5'-diphosphate derivatives” (J Med Chem, 1982).

In experiment [1] the target is T1, Pyruvate kinase PKLR (Rattus norvegicus, UniProt P12928). In words: Inhibitory constant for inhibition of pyruvate kinase obtained from rat liver (PK-L) was determined using ADP as competitive inhibitor.
In experiment [2] the target is T2, Pyruvate kinase PKM (Rattus norvegicus, UniProt P11980). In words: Inhibition of rat muscle pyruvate kinase (PK-M).
Experiment [3] addresses T2, Pyruvate kinase PKM. In words: Inhibition of rat muscle pyruvate kinase (PK-M) at 6.7 mM.
For experiment [4], the target named is T1, Pyruvate kinase PKLR. In words: Inhibition of rat liver pyruvate kinase (PK-L) at 10.7 mM.
Experiment [5] addresses T2, Pyruvate kinase PKM. In words: Inhibition of rat muscle pyruvate kinase (PK-M) at 10 mM.
Experiment [6] deals with T1, Pyruvate kinase PKLR. Kind of experiment: Inhibition of rat kidney pyruvate kinase (PK-L).
Experiment [7] addresses T1, Pyruvate kinase PKLR. In words: Inhibition of rat liver pyruvate kinase (PK-L); (relative inhibitory potency).
Experiment [8] has as its target T1, Pyruvate kinase PKLR. In words: Inhibition of rat liver pyruvate kinase (PK-L) at 7.2 mM.
Experiment [9] deals with T1, Pyruvate kinase PKLR. Kind of experiment: Inhibition of rat liver pyruvate kinase (PK-L) at 3.6 mM.

Several values for one entry are separate records, joined by “and”; a condition that tells them apart may be missing. Identical values can stand only once.

T1 sequence (P12928 whole entry): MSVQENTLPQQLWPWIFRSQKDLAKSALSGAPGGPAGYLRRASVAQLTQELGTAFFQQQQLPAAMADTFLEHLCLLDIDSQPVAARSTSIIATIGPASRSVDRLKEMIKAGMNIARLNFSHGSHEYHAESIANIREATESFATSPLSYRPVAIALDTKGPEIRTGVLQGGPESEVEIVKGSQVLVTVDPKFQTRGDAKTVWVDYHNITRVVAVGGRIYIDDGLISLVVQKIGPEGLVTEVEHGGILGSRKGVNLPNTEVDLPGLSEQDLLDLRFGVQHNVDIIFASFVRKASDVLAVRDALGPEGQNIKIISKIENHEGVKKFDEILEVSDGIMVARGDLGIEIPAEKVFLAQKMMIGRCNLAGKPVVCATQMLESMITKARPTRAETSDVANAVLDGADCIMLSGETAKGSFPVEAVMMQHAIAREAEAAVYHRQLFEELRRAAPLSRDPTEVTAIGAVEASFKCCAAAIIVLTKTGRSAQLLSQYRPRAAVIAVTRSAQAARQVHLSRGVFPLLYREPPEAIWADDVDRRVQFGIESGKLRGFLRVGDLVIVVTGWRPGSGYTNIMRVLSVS
T2 sequence (P11980 whole entry): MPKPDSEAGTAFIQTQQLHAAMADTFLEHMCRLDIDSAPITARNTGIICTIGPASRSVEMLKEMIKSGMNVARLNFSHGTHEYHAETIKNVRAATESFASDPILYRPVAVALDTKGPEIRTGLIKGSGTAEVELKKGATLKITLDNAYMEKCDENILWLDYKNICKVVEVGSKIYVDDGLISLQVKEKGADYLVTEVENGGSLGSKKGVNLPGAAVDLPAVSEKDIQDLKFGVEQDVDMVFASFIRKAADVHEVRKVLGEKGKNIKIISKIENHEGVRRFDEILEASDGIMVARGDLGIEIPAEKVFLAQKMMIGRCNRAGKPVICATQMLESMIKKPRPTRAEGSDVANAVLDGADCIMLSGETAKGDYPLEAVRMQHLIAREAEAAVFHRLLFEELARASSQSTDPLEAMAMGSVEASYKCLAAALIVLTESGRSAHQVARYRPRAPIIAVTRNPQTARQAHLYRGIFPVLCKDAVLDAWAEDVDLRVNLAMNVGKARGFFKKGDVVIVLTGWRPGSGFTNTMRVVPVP

As to `CCNc1nc2c(N)ncnc2n1C1O[C@H](COP(=O)(O)OP(=O)(O)O)[C@@H](O)[C@H]1O` (some centres not stated), the Ki at Pyruvate kinase PKLR [1] is 2.2 mM and 3.9 mM; at Pyruvate kinase PKM [2], 0.5 mM and 0.87 mM.
Consider `C[C@@H](OP(=O)(O)OP(=O)(O)O)[C@H]1OC(n2cnc3c(N)ncnc32)[C@H](O)[C@@H]1O` (some centres not stated), for which the Ki was found to be 7 mM on Pyruvate kinase PKM [3], 5.4 mM on Pyruvate kinase PKLR [4] and 4.5 mM at Pyruvate kinase PKM [5].
For `CCSc1nc2c(N)ncnc2n1C1O[C@H](COP(=O)(O)OP(=O)(O)O)[C@@H](O)[C@H]1O` (some centres not stated), the Ki is 8.4 mM on Pyruvate kinase PKLR [1] and 3.7 mM at Pyruvate kinase PKM [2].
In the case of `CO[C@H]1[C@@H](O)[C@H](n2cnc3c(N)ncnc32)O[C@@H]1COP(=O)(O)OP(=O)(O)O`, the Ki amounted to 32 mM on Pyruvate kinase PKLR [1] and 9.3 mM on Pyruvate kinase PKM [2].
For `CSc1nc2c(N)ncnc2n1C1O[C@H](COP(=O)(O)OP(=O)(O)O)[C@@H](O)[C@H]1O` (some centres not stated) the same measures were 7.5 mM and 4.3 mM.
Take `CCCNc1nc2c(N)ncnc2n1C1O[C@H](COP(=O)(O)OP(=O)(O)O)[C@@H](O)[C@H]1O` (some centres not stated): the Ki at Pyruvate kinase PKM [2] was determined as 0.9 mM; at Pyruvate kinase PKLR [6], 1.6 mM; at Pyruvate kinase PKLR [7], 3.8 mM.
On to `CC1O[C@@H]2[C@H](O1)[C@@H](COP(=O)(O)OP(=O)(O)O)O[C@H]2n1cnc2c(N)ncnc21` (some centres not stated), for which the Ki at Pyruvate kinase PKLR [8] turned out to be 2.2 mM; at Pyruvate kinase PKLR [9], 4.6 mM; on Pyruvate kinase PKM [2], 1.6 mM.
